Measurements from patent publication US8389521B2, “Inhibitors of protein kinases” (Ingenium Pharmaceuticals GmbH, priority 2007, dated 2013).

Key:
[1] = system: Tau phosphorylation at Serin396 in differentiated SH-SY5Y cells; assay: In vitro SH-SY5Y assay using tau phosphorylation; type: cell-based, human; conditions: RA- and BDNF-differentiated SH-SY5Y cells, 90-120 min incubation, Western Blot or ELISA
Experimental: The human neuroblastoma cell line SH-SY5Y can be utilized as an in vitro model to investigate CDK5 function and the efficacy of CDK5 specific inhibitors. SH-SY5Y cells express tau protein which harbors various phosphorylation sites known to be phosphorylated by several kinases including CDK5. SH-SY5Y cells can be differentiated into neuron-like cells by exposure to 10 μM all trans-retinoic acid for 3 days and subsequent exposure to 50 ng/ml human recombinant brain-derived neurotrophic factor for 3-5 days, thereby upregulating neuronal markers, including tau protein. In addition CDK5 and p35 protein levels were increased during differentiation. RA-BDNF-differentiated cells can therefore serve as a suitable model for studying tau phosphorylation and to screen potential CDK5 inhibitors (Jämsä et al., 2004. BBRC 319; 993-1000). […]
Concentrations of total tau, pS396 tau and pT231 tau within the cell culture lysates are measured by using commercial ELISA Kits (BioSource: human total tau: KHB0042; human pS396 tau: KHB7031; human pT231 tau: KHB7051) according to the manufacturers instructions or by using Western Blots probing with total and phospho-specific antibodies (antibodies: total tau: Santa Cruz, sc-21796; pS396 tau: Santa Cruz, sc-12414; pT231 tau, AT180: Pierce Endogen, MN1040; pS202 tau: AT8: Pierce Endogen, MN1020). […]

Structure (SMILES): CCOc1ccccc1-c1cc(Nc2ccc(CS(N)(=O)=O)cc2)ncn1 [Compound 6, {4-[6-(2-Ethoxy-phenyl)-pyrimidin-4-ylamino]-phenyl}-methanesulfonamide]
- melting point: 213.5 to 215.1 °C

Structure (SMILES): NS(=O)(=O)Cc1ccc(Nc2cc(-c3ccccc3OCc3ccccc3)ncn2)cc1 [Compound 8, {4-[6-(2-Benzyloxy-phenyl)-pyrimidin-4-ylamino]-phenyl}-methanesulfonamide]
- inhibitory effect on Tau phosphorylation at Serin396 [1]: significant inhibitory effect

Structure (SMILES): COCCCNS(=O)(=O)Cc1cccc(Nc2cc(-c3ccccc3OC)ncn2)c1 [Reference Compound 3, C-{3-[6-(2-methoxy-phenyl)-pyrimidin-4-ylamino]-phenyl}-N-(3-methoxy-propyl)-methanesulfonamide]
- melting point: 149.2 to 150.8 °C
